Data on two molecules can be found in article PMC13050904, “Sensitivity to cuticular hydrocarbons across the odorant receptor family in the Indian jumping ant, Harpegnathos saltator” (Frontiers in Insect Science, 2026).

The target in one test is T1, HsOr152 (Harpegnathos saltator, UniProt Z9SO02V7Q0).
T1 construct: V subfamily OR; full-length, UAS-HsOr152 (pUASg.attB, attP40) in D. melanogaster ab2A neurons by Orco-GAL4; complex with endogenous DmOrco (D. melanogaster); with Odorant receptor coreceptor (Drosophila melanogaster)
T1 sequence (Z9SO02V7Q0 1-385): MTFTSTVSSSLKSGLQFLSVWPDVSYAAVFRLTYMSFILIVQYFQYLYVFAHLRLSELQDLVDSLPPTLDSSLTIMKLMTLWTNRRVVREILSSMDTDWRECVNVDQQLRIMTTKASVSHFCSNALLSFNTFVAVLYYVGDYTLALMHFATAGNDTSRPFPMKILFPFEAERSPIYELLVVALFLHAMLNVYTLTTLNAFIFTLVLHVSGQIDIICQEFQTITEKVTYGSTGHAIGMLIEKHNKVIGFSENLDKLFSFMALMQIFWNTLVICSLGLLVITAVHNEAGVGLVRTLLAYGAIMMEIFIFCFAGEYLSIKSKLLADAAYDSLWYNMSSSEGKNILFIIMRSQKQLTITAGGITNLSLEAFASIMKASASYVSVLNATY
T1 sequence (Q9VNB5 1-486 partner): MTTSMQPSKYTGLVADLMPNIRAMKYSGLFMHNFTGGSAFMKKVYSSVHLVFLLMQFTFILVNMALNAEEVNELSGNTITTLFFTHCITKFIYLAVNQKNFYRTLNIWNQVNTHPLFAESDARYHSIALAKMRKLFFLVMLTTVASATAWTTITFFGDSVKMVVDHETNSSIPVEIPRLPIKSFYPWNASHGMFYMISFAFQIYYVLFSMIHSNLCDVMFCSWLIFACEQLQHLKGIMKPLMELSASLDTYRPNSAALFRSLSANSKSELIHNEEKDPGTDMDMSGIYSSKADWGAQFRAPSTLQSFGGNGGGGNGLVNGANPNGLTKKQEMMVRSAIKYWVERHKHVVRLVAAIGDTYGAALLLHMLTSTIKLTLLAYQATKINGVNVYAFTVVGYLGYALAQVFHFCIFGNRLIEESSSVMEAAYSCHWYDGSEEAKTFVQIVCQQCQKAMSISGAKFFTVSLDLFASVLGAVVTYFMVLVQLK
Briefly: single-sensillum recording of Drosophila ab2A neurons expressing the receptor. Type of test: cell-based. To be noted: 20 nmol dosed on heated cartridge; with DmOrco; excitatory; solvent (pentane) response subtracted.

The next test has as its target T2, HsOr115 (Harpegnathos saltator, UniProt Z9I713BLV2).
T2 construct: full-length, UAS-HsOr (pUASg.attB, attP40) in D. melanogaster ab2A neurons by Orco-GAL4; complex with endogenous DmOrco (D. melanogaster); with Odorant receptor coreceptor (Drosophila melanogaster)
T2 sequence (Z9I713BLV2 1-398): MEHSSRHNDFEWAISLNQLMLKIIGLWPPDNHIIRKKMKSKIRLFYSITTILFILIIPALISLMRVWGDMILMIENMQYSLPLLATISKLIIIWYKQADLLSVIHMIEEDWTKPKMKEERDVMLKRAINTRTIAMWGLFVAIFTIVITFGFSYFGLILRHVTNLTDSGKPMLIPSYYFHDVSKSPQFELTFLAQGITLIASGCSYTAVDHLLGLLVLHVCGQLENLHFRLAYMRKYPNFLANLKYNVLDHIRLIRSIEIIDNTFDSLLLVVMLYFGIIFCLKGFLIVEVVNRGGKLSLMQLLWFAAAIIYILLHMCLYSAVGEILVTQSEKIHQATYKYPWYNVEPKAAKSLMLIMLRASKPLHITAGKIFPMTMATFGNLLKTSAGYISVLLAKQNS
T2 sequence (Q9VNB5 1-486 partner): T1 sequence (Q9VNB5 1-486 partner)
Described as above. It counts as cell-based. To be noted: 20 nmol dosed on heated cartridge; with DmOrco; excitatory; solvent (pentane) response subtracted.

Structures are written as SMILES.

As for `CCCCCCCCCCCCCCCCCCCCCCCCCCCC` [C28, octacosane], at HsOr152, the “mean response (Δspikes/s) at 20 nmol” value was 87.5 Δspikes/s. Take `CCCCCCCCCCCCCCCCCCCCCCCCCCCCCC` [C30]: the “response (Δspikes/s) at 20 nmol” value on HsOr115 is reported as 33.0 Δspikes/s.
